Reference: ChEMBL document CHEMBL1909046, “DrugMatrix in vitro pharmacology data”

Assays:
[1] = molecular target: Prostaglandin G/H synthase 1 (Homo sapiens, UniProt P23219); experiment: biochemical; type: tissue-based, Platelet; conditions: platelet;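 also: inhibition of COX-1 enzyme activity, with arachidonic acid supplied as substrate; in other assays of this panel Not Active means under 50% inhibition at 10 µM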
[2] = molecular target: T1, Neuropeptide Y receptor type 1 (Homo sapiens, UniProt P25929); type: cell membranes, Membrane; conditions: sk-n-mc; also: in other assays of this panel Not Active means under 50% inhibition at 10 µM
T1 sequence (P25929 whole entry): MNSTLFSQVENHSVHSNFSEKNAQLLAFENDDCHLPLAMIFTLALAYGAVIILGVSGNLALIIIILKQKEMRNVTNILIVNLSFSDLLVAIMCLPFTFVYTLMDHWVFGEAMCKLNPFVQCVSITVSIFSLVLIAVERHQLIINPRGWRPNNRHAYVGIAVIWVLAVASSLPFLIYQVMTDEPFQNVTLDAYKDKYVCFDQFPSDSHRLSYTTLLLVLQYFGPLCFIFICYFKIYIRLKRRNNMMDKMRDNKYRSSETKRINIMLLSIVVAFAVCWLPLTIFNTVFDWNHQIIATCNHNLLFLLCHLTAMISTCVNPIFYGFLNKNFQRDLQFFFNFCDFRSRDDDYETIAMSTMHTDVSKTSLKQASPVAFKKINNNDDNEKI

Cannabinoid receptor 1 = Cannabinoid receptor 1 (Homo sapiens, UniProt P21554); type: cell membranes, Membrane; conditions: chem-1; also: in other assays of this panel Not Active means under 50% inhibition at 10 µM
Chain of Cannabinoid receptor 1 (P21554 whole entry): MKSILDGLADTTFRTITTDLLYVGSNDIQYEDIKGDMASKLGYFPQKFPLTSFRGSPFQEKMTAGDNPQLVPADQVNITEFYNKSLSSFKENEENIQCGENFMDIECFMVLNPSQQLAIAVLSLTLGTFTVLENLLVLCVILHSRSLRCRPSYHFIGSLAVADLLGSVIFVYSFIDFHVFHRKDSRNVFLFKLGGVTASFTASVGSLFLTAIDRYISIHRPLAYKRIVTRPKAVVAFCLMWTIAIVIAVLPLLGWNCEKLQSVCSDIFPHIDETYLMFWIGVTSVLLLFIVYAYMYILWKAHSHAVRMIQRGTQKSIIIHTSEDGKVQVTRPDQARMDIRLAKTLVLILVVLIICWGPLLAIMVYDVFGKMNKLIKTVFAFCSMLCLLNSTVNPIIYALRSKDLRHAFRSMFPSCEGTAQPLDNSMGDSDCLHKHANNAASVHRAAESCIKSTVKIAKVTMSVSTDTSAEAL

[3] = DRUGMATRIX: ATPase, Na+/K+ enzyme inhibition (substrate: ATP); type: tissue-based, Sus scrofa, Heart; conditions: Not Active = under 50% inhibition at 10 µM
[4] = DRUGMATRIX: Calcium Channel Type L, Dihydropyridine radioligand binding (ligand: [3H] Nitrendipine); type: cell membranes, Rattus norvegicus, Wistar, Cerebral cortex, Membrane; conditions: Not Active = under 50% inhibition at 10 µM
Adenosine receptor A1 = molecular target: T2, Adenosine receptor A1 (Homo sapiens, UniProt P30542); type: cell membranes, CHO, Membrane; conditions: cho;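 also: radioligand binding assay at the adenosine A1 receptor, with DPCPX serving as the labelled ligand; in other assays of this panel Not Active means under 50% inhibition at 10 µM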
T2 sequence (P30542 whole entry): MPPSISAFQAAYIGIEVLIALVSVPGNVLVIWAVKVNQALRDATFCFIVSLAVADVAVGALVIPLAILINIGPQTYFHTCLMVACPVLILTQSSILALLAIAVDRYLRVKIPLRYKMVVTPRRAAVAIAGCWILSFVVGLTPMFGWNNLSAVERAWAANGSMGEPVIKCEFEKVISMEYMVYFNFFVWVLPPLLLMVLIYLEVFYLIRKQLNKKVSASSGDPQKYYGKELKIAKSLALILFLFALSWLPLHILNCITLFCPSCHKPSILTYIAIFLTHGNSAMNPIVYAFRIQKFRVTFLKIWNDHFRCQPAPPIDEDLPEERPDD

[5] = molecular target: T3, Vasoactive intestinal polypeptide receptor 1 (Homo sapiens, UniProt P32241); type: cell membranes, Membrane; conditions: ht-29; also: in other assays of this panel Not Active means under 50% inhibition at 10 µM
T3 sequence (P32241 whole entry): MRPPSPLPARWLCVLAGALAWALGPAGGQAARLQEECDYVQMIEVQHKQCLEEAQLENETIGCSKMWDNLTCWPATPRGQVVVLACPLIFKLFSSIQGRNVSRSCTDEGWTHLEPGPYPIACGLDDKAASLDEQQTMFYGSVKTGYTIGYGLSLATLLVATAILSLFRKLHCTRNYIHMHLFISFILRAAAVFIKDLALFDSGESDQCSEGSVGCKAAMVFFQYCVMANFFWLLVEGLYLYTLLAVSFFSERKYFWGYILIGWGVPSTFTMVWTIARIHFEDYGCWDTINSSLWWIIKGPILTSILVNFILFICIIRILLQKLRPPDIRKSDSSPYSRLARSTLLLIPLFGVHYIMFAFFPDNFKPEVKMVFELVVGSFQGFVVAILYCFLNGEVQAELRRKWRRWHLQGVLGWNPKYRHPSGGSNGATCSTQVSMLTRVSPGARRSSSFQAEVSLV

[6] = molecular target: T4, C-C chemokine receptor type 4 (Homo sapiens, UniProt P51679); type: cell membranes, Membrane; conditions: chem-1; also: in other assays of this panel Not Active means under 50% inhibition at 10 µM
T4 sequence (P51679 whole entry): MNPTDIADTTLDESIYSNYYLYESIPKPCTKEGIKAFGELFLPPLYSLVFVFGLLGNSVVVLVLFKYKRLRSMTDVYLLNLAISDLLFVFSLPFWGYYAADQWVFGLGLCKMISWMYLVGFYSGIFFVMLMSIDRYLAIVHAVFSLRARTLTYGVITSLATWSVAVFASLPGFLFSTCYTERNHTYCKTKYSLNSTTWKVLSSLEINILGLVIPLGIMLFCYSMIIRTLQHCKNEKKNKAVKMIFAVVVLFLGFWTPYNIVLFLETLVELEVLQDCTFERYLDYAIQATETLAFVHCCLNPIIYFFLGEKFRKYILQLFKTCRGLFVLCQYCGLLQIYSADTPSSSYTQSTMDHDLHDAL

Endothelin-1 receptor = molecular target: T5, Endothelin-1 receptor (Homo sapiens, UniProt P25101); type: cell membranes, Membrane; conditions: cho-k1; also: in other assays of this panel Not Active means under 50% inhibition at 10 µM
T5 sequence (P25101 whole entry): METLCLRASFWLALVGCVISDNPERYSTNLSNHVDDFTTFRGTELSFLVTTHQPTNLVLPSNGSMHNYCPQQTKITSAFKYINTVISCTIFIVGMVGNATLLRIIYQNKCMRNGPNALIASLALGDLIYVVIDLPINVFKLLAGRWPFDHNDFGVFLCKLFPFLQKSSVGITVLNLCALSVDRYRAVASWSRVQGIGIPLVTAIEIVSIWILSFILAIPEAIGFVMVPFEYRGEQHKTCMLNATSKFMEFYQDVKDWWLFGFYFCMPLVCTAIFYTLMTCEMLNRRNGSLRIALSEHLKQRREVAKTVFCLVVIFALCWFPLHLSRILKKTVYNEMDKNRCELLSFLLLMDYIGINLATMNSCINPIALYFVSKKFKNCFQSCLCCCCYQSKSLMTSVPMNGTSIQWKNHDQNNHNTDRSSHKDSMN

Caspase-1 = molecular target: T6, Caspase-1 (Homo sapiens, UniProt P29466); design: species or system Escherichia coli
T6 sequence (P29466 whole entry): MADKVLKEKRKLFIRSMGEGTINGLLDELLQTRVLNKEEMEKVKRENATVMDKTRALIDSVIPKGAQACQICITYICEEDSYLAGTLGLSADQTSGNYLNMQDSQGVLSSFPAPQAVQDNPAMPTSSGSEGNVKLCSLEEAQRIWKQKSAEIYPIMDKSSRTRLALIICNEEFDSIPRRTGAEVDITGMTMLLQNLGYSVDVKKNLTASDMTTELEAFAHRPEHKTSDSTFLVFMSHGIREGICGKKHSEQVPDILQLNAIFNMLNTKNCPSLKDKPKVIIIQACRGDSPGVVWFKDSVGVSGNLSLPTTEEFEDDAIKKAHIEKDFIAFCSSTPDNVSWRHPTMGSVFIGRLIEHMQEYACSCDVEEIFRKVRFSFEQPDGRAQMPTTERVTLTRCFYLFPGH

Chain of Prostaglandin G/H synthase 1 (P23219 whole entry): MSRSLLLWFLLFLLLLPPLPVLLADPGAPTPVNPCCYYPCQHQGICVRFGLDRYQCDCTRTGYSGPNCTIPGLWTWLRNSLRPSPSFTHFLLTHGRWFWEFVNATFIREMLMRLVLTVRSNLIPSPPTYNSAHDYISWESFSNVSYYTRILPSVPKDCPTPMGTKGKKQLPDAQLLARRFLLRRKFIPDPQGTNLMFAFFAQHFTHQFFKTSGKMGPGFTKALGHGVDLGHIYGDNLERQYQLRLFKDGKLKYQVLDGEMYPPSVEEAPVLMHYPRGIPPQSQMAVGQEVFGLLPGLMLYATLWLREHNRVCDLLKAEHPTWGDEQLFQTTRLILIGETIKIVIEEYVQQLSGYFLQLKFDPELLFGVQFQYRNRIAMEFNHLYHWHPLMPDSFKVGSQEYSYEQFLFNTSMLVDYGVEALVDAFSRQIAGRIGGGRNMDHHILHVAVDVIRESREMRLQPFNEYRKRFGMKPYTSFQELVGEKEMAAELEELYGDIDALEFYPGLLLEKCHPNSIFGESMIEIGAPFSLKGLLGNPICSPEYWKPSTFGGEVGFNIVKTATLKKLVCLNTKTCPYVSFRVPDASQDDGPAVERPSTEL

c1ccc2[nH]c(-c3cscn3)nc2c1 [THIABENDAZOLE]
Not Active: IC50 [1] | IC50 [2] | IC50 (Cannabinoid receptor 1) | IC50 [3] | Ki [3] | IC50 [4] | Ki [4] | IC50 (Adenosine receptor A1) | IC50 [5] | IC50 [6] | IC50 (Endothelin-1 receptor) | IC50 (Caspase-1)

Cc1cc(NS(=O)(=O)c2ccc(N)cc2)no1 [SULFAMETHOXAZOLE]
Not Active: IC50 [1] | IC50 [2] | IC50 (Cannabinoid receptor 1) | IC50 [3] | Ki [3] | IC50 [4] | Ki [4] | IC50 (Adenosine receptor A1) | IC50 [5] | IC50 [6] | IC50 (Endothelin-1 receptor) | IC50 (Caspase-1)

COc1c(C)c2c(c(O)c1C/C=C(\C)CCC(=O)OCCN1CCOCC1)C(=O)OC2 [MYCOPHENOLATE MOFETIL]
Not Active: IC50 [1] | IC50 [2] | IC50 (Cannabinoid receptor 1) | IC50 [3] | Ki [3] | IC50 [4] | Ki [4] | IC50 (Adenosine receptor A1) | IC50 [5] | IC50 [6] | IC50 (Endothelin-1 receptor) | IC50 (Caspase-1)

Nc1ccc(S(=O)(=O)Nc2ccnn2-c2ccccc2)cc1 [SULFAPHENAZOLE]
Not Active: IC50 [1] | IC50 [2] | IC50 (Cannabinoid receptor 1) | IC50 [3] | Ki [3] | IC50 [4] | Ki [4] | IC50 (Adenosine receptor A1) | IC50 [5] | IC50 [6] | IC50 (Endothelin-1 receptor) | IC50 (Caspase-1)

CC1CN(c2cc3c(cc2F)c(=O)c(C(=O)O)cn3-c2ccc(F)cc2F)CCN1 (stereo not given) [TEMAFLOXACIN]
Not Active: IC50 [1] | IC50 [2] | IC50 (Cannabinoid receptor 1) | IC50 [3] | Ki [3] | IC50 [4] | Ki [4] | IC50 (Adenosine receptor A1) | IC50 [5] | IC50 [6] | IC50 (Endothelin-1 receptor) | IC50 (Caspase-1)

IVERMECTIN
Not Active: IC50 [1] | Ki [1] | IC50 [2] | Ki [2] | IC50 (Cannabinoid receptor 1) | Ki (Cannabinoid receptor 1) | IC50 [3] | Ki [3] | IC50 [4] | Ki [4] | IC50 (Adenosine receptor A1) | Ki (Adenosine receptor A1) | IC50 [5] | Ki [5] | IC50 [6] | Ki [6] | IC50 (Endothelin-1 receptor) | Ki (Endothelin-1 receptor) | IC50 (Caspase-1) | Ki (Caspase-1)

CN[C@H](CC(C)C)C(=O)N[C@H]1C(=O)N[C@@H](CC(N)=O)C(=O)N[C@H]2C(=O)N[C@H]3C(=O)N[C@H](C(=O)N[C@H](C(=O)O)c4cc(O)cc(O)c4-c4cc3ccc4O)[C@H](O)c3ccc(c(Cl)c3)Oc3cc2cc(c3O[C@@H]2O[C@H](CO)[C@@H](O)[C@H](O)[C@H]2O[C@H]2C[C@](C)(N)[C@H](O)[C@H](C)O2)Oc2ccc(cc2Cl)[C@H]1O [VANCOMYCIN]
Not Active: IC50 [1] | IC50 [2] | IC50 (Cannabinoid receptor 1) | IC50 [3] | Ki [3] | IC50 [4] | Ki [4] | IC50 (Adenosine receptor A1) | IC50 [5] | IC50 [6] | IC50 (Endothelin-1 receptor) | IC50 (Caspase-1)

CC(=O)S[C@@H]1CC2=CC(=O)CC[C@]2(C)[C@H]2CC[C@@]3(C)[C@@H](CC[C@@]34CCC(=O)O4)[C@H]12 [SPIRONOLACTONE]
Not Active: IC50 [1] | IC50 [2] | IC50 (Cannabinoid receptor 1) | IC50 [3] | Ki [3] | IC50 [4] | Ki [4] | IC50 (Adenosine receptor A1) | IC50 [5] | IC50 [6] | IC50 (Endothelin-1 receptor) | IC50 (Caspase-1)

COc1cc(C(=O)NC2CCCNC2)cc(OC)c1OC (stereo not given) [TROXIPIDE]
Not Active: IC50 [1] | IC50 [2] | IC50 (Cannabinoid receptor 1) | IC50 [3] | Ki [3] | IC50 [4] | Ki [4] | IC50 (Adenosine receptor A1) | IC50 [5] | IC50 [6] | IC50 (Endothelin-1 receptor) | IC50 (Caspase-1)

Cc1ccc(C(=O)C(C)CN2CCCCC2)cc1 (stereo not given) [TOLPERISONE]
Not Active: IC50 [1] | IC50 [2] | IC50 (Cannabinoid receptor 1) | IC50 [3] | Ki [3] | IC50 [4] | Ki [4] | IC50 (Adenosine receptor A1) | IC50 [5] | IC50 [6] | IC50 (Endothelin-1 receptor) | IC50 (Caspase-1)

NC(=O)c1ccccc1O [SALICYLAMIDE]
Not Active: IC50 [1] | IC50 [2] | IC50 (Cannabinoid receptor 1) | IC50 [3] | Ki [3] | IC50 [4] | Ki [4] | IC50 (Adenosine receptor A1) | IC50 [5] | IC50 [6] | IC50 (Endothelin-1 receptor) | IC50 (Caspase-1)
